Experimental data published in patent publication US12595269B2, “Morpholine-like monoamine releasers” (Solvonis Therapeutics Ireland Holdings Limited, priority 2022, dated 2026).

Legend:
[1] = Apparent permeability (Papp AB) in MDCKII cells; type: in vitro ADME, Canine; settings: dog, MDCK; pH 7.4, apical to basolateral, 60 min
Description: Methods and Procedure: This study was conducted in compliance with previously described procedures to assure data integrity and adherence to GLP regulations. The experiments described herein were designed to evaluate the apparent permeability (Papp) of test compounds at pH 7.4. Additionally, the MDCKII-MDR1 cell line (Madin-Darby Canine Kidney clone II cell line heterologously expressing the human P-glycoprotein transporter) and mock cell line MDCKII were used to determine whether a compound acted as a P-gp substrate, in the absence and in the presence of the potent P-gp inhibitor. Test control items (digoxin, metoprolol, and atenolol) and control P-gp inhibitor (GF120918) stock solution were prepared in DMSO. Bidirectional assays (Apical to Basolateral [AB] and Basolateral to Apical [BA]) were run, in both the absence and presence of P-gp inhibitor GF120918 in MDCKII-MDR1 and mock cell line MDCKII, using as transport buffer HBSSH at a pH of 7.4 (n=3).
Compounds were tested at a single concentration (i.e. at 3 or 10 μM) at one time point (i.e. 60 min). Alternative concentrations or time-points may also be investigated. As reference compounds, digoxin (P-gp substrate), atenolol (low permeable compound) and metoprolol (high permeable compound) were included at a single concentration (e.g., 10 or 25 μM) and at single time point (e.g., 60 min). Digoxin transport was evaluated in two directions (apical-to-basolateral [AB] and basolateral-to-apical [BA]) in the absence and presence of GF120918 or in mock cells, MDCKII (n=3). Atenolol and metoprolol were only tested in the AB direction in absence of GF120918 or in mock cells, MDCKII (n=3). The integrity of the cell monolayer was evaluated after the permeability experiment using the paracellular permeability marker Lucifer yellow (LY) in the apical to basolateral direction in each well.
MDCKII or MDCKII-MDRI cells cultivated using DMEM (high glucose, GlutaMAX™ supplemented with pyruvate, 10% FBS HI and Pen/Strep) and seeded onto microporous PET (Polyethylene Terephthalate) membranes in HTS 96-Multiwell Insert plates at density of ˜175,000-245,000 cells/cm^2 (25000-35000 cells/well; 50 μL/well) in DMEM medium and incubated for 3-4 days at 37° C.-5% CO2. Medium was changed a day before the experiment.
Stock solutions of test items were prepared in DMSO at a concentration of 5 or 10 mM and stored at −20° C. until use. The potent P-gp inhibitor, GF120918 (stock solution 10 mM) and the reference controls digoxin, atenolol, metoprolol (stock solutions 3 or 10 mM) were prepared in DMSO and stored at −20° C. until use.
Donor working solutions of test items and reference controls will be prepared at a concentration of 10 or 25 μM, diluting the stock solutions in HBSSH. Receiver working solutions contained transport buffer only. […]
MDCKII and MDCKII-MDR1 cells were preincubated (37° C., 15 to 30 minutes) in receiver working solutions containing transport buffer on apical (A) and basolateral (B) sides. Following pre-incubation, test items and control items (digoxin) transport were measured in two directions (apical to basolateral [AB]) and basolateral to apical [BA]), and these directions were performed in triplicate sets of wells, in both the absence and presence of […] GF120918 or mock MDCKII cells. […] Transport of permeability reference controls, atenolol and metoprolol, were measured in one direction (apical to basolateral [AB]) (n=3). […]

human DAT = target: T1, human DAT (Homo sapiens, UniProt Q01959); test: DAT uptake scintillation proximity assay, inhibition of [3H]-dopamine uptake in hDAT-CHO cells; type: cell-based; settings: read-out: DAT update pIC50 (converted)
T1 construct: expressed in transfected cells; host or cells: CHO
T1 sequence (Q01959 whole entry): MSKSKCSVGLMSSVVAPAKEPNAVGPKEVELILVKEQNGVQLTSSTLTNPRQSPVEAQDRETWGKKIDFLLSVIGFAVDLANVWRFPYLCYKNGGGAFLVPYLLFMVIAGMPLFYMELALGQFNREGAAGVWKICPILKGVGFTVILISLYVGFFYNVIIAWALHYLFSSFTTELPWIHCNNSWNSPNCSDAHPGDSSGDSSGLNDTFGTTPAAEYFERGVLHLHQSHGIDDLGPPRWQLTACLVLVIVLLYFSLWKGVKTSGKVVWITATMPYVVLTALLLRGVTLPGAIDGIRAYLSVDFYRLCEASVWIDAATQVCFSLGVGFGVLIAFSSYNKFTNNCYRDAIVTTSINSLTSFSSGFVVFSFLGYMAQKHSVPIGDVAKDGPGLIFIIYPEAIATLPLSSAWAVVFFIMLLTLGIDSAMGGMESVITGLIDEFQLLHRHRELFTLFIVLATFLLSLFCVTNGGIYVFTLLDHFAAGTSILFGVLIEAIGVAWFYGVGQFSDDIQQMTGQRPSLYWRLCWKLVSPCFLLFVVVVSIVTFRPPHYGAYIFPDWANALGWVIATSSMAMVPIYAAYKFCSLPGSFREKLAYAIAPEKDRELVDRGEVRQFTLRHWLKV
Description: Overview: Eighty-eight compounds were tested in SERT (serotonin transporter) and DAT (dopamine transporter) uptake assays (completed as scintillation proximity assays, or SPAs, in a recombinant CHO cell line). Fifty-two compounds were tested in release assays for 5-HT and DA release in rat synaptosomes.
Methods and Procedure-Uptake: The potency of the compounds described herein for inhibiting DAT function was measured using an uptake assay in a recombinant CHO cell line stably expressing human DAT (hDAT-CHO). Potency was measured in terms of pIC50 by testing for inhibition of [^3H]-dopamine uptake in hDAT-CHO cells in a 384-well format scintillation proximity assay (SPA).
Briefly, on experiment days, hDAT-CHO cells were detached using Versene and added at a density of approximately 300,000 cells/mL to the SPA Mixture, which contains the following components in Assay Buffer (20 mM HEPES, 145 mM NaCl, 5 mM KCl, 2 mM CaCl2, 1 mM MgCl2, 5.5 mM glucose, 0.01% Pluronic F127, pH 7.3): 0.75 mg/mL SPA Imaging beads (RPNQ0001, PerkinElmer), 10 μM pargyline and 80 nM of [^3H]-dopamine (NET673, PerkinEImer). The SPA Mixture was added 20 μL/well to 384 well plates containing 0.1 μL/well of test compound in neat DMSO (11 points of 1:5 serial dilution, 0.5% DMSO final) or 0.1 μL of DMSO (total uptake) or 0.1 μL of the standard inhibitor indatraline (at 1 μM final concentration, as nonspecific uptake). Plates were sealed with a Top-seal A and read using a Microbeta counter (PerkinEImer) after 45 minutes of incubation at room temperature.
For both tests, the raw experimental data (cpm) were elaborated for the determination of pIC50/IC50 values as % inhibition of specific uptake. Concentration-response curves of MDMA, MDDMA, citalopram and GBR-12909 were used as internal standards in all experiments, and the signal window was monitored in each plate performing Z′ calculations, as described in Zhang et al., J. Biomol. Screen., 1999; 4: 67-73.

Row | SMILES | Papp A→B at 60 min [1] [×10⁻⁶ cm/s] | IC50 (human DAT) [nM]
1 | Clc1ccc([C@]23CN[C@H](CO2)C3)cc1Cl (single isomer, unassigned) [516A] | 15.8 | 72.4
2 | Clc1ccc([C@@]23CN[C@@H](CO2)C3)cc1Cl (single isomer, unassigned) [518A] | 17.3 | 89.1
3 | Clc1ccc(C23CNC(CO2)C3)cc1Cl (stereo not shown) [522A, 1-(3,4-dichlorophenyl)-2-oxa-5-azabicyclo[2.2.1]heptane] | 9.45 | 63.1
4 | CNC(C)Cc1ccc2c(c1)OCO2 (stereo not shown) [MDMA, reference compound] | 14 | 
